The values that follow come from EP4653437A2 (Innovo Therapeutics Inc., priority 2023, dated 2024).

For test [1], the target named is T1, human 15-PGDH (Homo sapiens, UniProt P15428).
T1 construct: purchased R&D System 5660-DH
T1 sequence (P15428 1-266): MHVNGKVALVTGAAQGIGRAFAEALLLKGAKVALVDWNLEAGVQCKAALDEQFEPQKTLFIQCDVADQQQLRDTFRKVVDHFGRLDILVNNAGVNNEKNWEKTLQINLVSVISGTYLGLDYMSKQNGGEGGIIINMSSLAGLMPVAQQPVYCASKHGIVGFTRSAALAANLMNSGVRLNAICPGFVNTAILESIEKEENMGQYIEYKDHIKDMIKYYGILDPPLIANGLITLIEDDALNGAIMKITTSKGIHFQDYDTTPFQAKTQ
Nature of the test: Evaluation of 15-PGDH inhibitory activity (fluorescence enzyme assay, NAD+/PGE2). It counts as biochemical. The conditions noted are these: human 15-PGDH enzyme, fluorescence Vmax. On the procedure: 15-PGDH inhibition activity of Example compounds was measured as follows. 6.7 ng of human 15-PGDH (R&D System# 5660-DH) enzyme (10 µL) was added to a black 96 well plate, 60 µL of buffer (50 mM Tris-HCl, pH 7.5, 0.01% Tween 20) was added, and 10 µL of 200 µM β-Nicotinamide adenine dinucleotide sodium salt (Sigma, Cat# N0632-5G) was added. 10 µL of (10x) compound solution in DMSO was added and reacted for 10 minutes at room temperature.

The test system of test [2] is A549 cells. Nature of the test: Measurement of PGE2-increasing activity in A549 cells (IL-1β stimulated, PGE2 quantified in supernatant). The conditions noted are these: Homo sapiens, 24 h; concentration of 1 µM of each compound; IL-1β treated A549 cells; read-out: Increased PGE2 production in A549 cells. In kind it is cell-based. The method in brief: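 PGE2 secreted into the supernatant was measured by immunoassay 24 h after treatment. Before treatment, A549 cells were cultured 24 h in 10% FBS F12K, washed, and placed in serum-free medium containing compound (DMSO 0.1% final) plus or minus IL-1β, incubated at 37 °C, 5% CO2.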

One may read the IC50 as the concentration that gives 50% inhibition. As for `O=C(c1cnn2c(-c3ccccc3)cccc12)N1CC2CCC1C2` (centres unmarked) [Example 227, (2-azabicyclo[2.2.1]heptan-2-yl)(7-phenylpyrazolo[1,5-a]pyridin-3-yl)methanone], the IC50 in test [1] was ≤ 100 nM. Further, the fold induction at 1 µM in test [2] is > 1.5.
Turning to `O=C(c1cnn2c(-c3cnc(-c4nnco4)c(F)c3)cccc12)N1CCCCC1` [Example 380, [7-[5-fluoro-6-(1,3,4-oxadiazol-2-yl)-3-pyridyl]pyrazolo[1,5-a]pyridin-3-yl]-(1-piperidyl)methanone], in test [1], the 50% inhibitory concentration (IC50) is ≤ 100 nM. Moreover, the fold induction at 1 µM in test [2] was > 1.5.
On to `O=C(c1cnn2c(-c3cc(F)c(-c4noc(=O)[nH]4)c(F)c3)cccc12)N1CCCCC1` [Example 331, 3-(2,6-difluoro-4-(3-(piperidine-1-carbonyl)pyrazolo[1,5-a]pyridin-7-yl)phenyl)-1,2,4-oxadiazol-5(4H)-one], for which the IC50 in test [1] was ≤ 100 nM. Moreover, in test [2], the fold induction at 1 µM is > 1.5.
On the same counts, the results for `CN(C)C(=O)c1ccc(-c2cccc3c(C(=O)N4CCCCC4)cnn23)cc1` [Example 59, N,N-dimethyl-4-(3-(piperidine-1-carbonyl)pyrazolo[1,5-a]pyridin-7-yl)benzamide] are ≤ 100 nM and > 1.5.
Turning to `COCCNC(=O)c1ccc(-c2cccc3c(C(=O)N4CCCCC4)cnn23)cc1` [Example 62, N-(2-methoxyethyl)-4-(3-(piperidine-1-carbonyl)pyrazolo[1,5-a]pyridin-7-yl)benzamide], the IC50 in test [1] is ≤ 100 nM. In addition, the fold induction at 1 µM in test [2] was > 1.5.
On the same counts, the results for `O=C1CN(C(=O)c2cncc(-c3cccc4c(C(=O)N5CCCCC5)cnn34)c2)CC(=O)N1` [Example 204, 4-[5-[3-(piperidine-1-carbonyl)pyrazolo[1,5-a]pyridin-7-yl]pyridine-3-carbonyl]piperazine-2,6-dione] are ≤ 100 nM and < 1.5.
With `O=C(Nc1cccc2c(C(=O)N3CCCCC3)cnn12)c1cncc(F)c1` [Example 241, 5-fluoro-N-[3-(piperidine-1-carbonyl)pyrazolo[1,5-a]pyridin-7-yl]pyridine-3-carboxamide], in test [1], the IC50 is ≤ 100 nM. The fold induction at 1 µM in test [2] is > 1.5.
On to `N#Cc1ncc(-c2ccc(-c3cccc4c(C(=O)N5CCCCC5)cnn34)cc2)cn1` [Example 305, 5-[4-[3-(piperidine-1-carbonyl)pyrazolo[1,5-a]pyridin-7-yl]phenyl]pyrimidine-2-carbonitrile], for which the 50% inhibitory concentration (IC50) in test [1] is ≤ 100 nM. Moreover, in test [2], the fold induction at 1 µM was > 1.5.
On to `COC(=O)c1cccc(-c2cccc3c(C(=O)N4CCCCC4)cnn23)c1` [Example 3, methyl 3-(3-(piperidine-1-carbonyl)pyrazolo[1,5-a]pyridin-7-yl)benzoate], for which the half-inhibitory concentration (IC50) in test [1] was ≤ 100 nM. Besides, the fold induction at 1 µM in test [2] is < 1.5.
On the same counts, the results for `O=C(NCC1CC1)c1ccc(-c2cccc3c(C(=O)N4CCCCC4)cnn23)cc1` [Example 64, N-(cyclopropylmethyl)-4-(3-(piperidine-1-carbonyl)pyrazolo[1,5-a]pyridin-7-yl)benzamide] are ≤ 100 nM and > 1.5.
On the same counts, the results for `Cc1ncc(-c2cc(-c3cccc4c(C(=O)N5CCCCC5)cnn34)cc(N3CCOCC3)n2)cn1` [Example 377, (7-(2-(2-methylpyrimidin-5-yl)-6-morpholinopyridin-4-yl)pyrazolo[1,5-a]pyridin-3-yl)(piperidin-1-yl)methanone] are ≤ 100 nM and > 1.5.
For `N#Cc1cc(-c2cccc3c(C(=O)N4CCCCC4)cnn23)cc([N+](=O)[O-])c1` [Example 312, 3-nitro-5-(3-(piperidine-1-carbonyl)pyrazolo[1,5-a]pyridin-7-yl)benzonitrile], the IC50 in test [1] is ≤ 100 nM. For the same compound, the fold induction at 1 µM in test [2] is > 1.5.
In the same order, the values of `CN1CCC(NC(=O)c2ccc(-c3cccc4c(C(=O)N5CCCCC5)cnn34)cc2)CC1` [Example 65, N-(1-methylpiperidin-4-yl)-4-(3-(piperidine-1-carbonyl)pyrazolo[1,5-a]pyridin-7-yl)benzamide] are ≤ 100 nM and < 1.5.
On the same counts, the results for `O=C(NCc1ccon1)c1ccc(-c2cccc3c(C(=O)N4CCCCC4)cnn23)cc1` [Example 73, N-(isoxazol-3-ylmethyl)-4-(3-(piperidine-1-carbonyl)pyrazolo[1,5-a]pyridin-7-yl)benzamide] are ≤ 100 nM and > 1.5.
On the same counts, the results for `N#Cc1cccc(-c2cccc3c(C(=O)N4CCCCC4)cnn23)c1` [Example 6, 3-(3-(piperidine-1-carbonyl)pyrazolo[1,5-a]pyridin-7-yl)benzonitrile] are ≤ 100 nM and > 1.5.
As for `O=C(c1cnn2c(-c3cc(F)cc(-c4ncon4)c3)cccc12)N1CCCCC1` [Example 341, (7-(3-fluoro-5-(1,2,4-oxadiazol-3-yl)phenyl)pyrazolo[1,5-a]pyridin-3-yl)(piperidin-1-yl)methanone], the IC50 in test [1] was ≤ 100 nM. For the same compound, the fold induction at 1 µM in test [2] was > 1.5.
On the same counts, the results for `O=C(c1cnn2c(-c3cc(-c4cnoc4)nc(N4CCOCC4)c3)cccc12)N1CCCCC1` [Example 366, (7-(2-(isoxazol-4-yl)-6-morpholinopyridin-4-yl)pyrazolo[1,5-a]pyridin-3-yl)(piperidin-1-yl)methanone] are ≤ 100 nM and > 1.5.
On the same counts, the results for `O=C(c1cnn2c(-c3cc(-c4cncc(F)c4)nc(N4CCOC4=O)c3)cccc12)N1CCCCC1` [Example 370, 3-(5'-fluoro-4-(3-(piperidine-1-carbonyl)pyrazolo[1,5-a]pyridin-7-yl)-[2,3'-bipyridin]-6-yl)oxazolidin-2-one] are ≤ 100 nM and > 1.5.
For `Cn1nc(N)c2ccc(-c3cccc4c(C(=O)N5CCCCC5)cnn34)cc21` [Example 310, [7-(3-amino-1-methyl-indazol-6-yl)pyrazolo[1,5-a]pyridin-3-yl]-(1-piperidyl)methanone], the IC50 in test [1] is ≤ 100 nM. Besides, the fold induction at 1 µM in test [2] was > 1.5.
On the same counts, the results for `O=C(c1cnn2c(-c3cc(-c4noc(=O)[nH]4)cc([N+](=O)[O-])c3)cccc12)N1CCCCC1` [Example 329, 3-(3-nitro-5-(3-(piperidine-1-carbonyl)pyrazolo[1,5-a]pyridin-7-yl)phenyl)-1,2,4-oxadiazol-5(4H)-one] are ≤ 100 nM and > 1.5.
Turning to `O=C(c1cnn2c(-c3cc(Br)cnc3F)cccc12)N1CCCCC1` [Example 265, (7-(5-bromo-2-fluoropyridin-3-yl)pyrazolo[1,5-a]pyridin-3-yl)(piperidin-1-yl)methanone], in test [1], the IC50 is ≤ 100 nM. For the same compound, the fold induction at 1 µM in test [2] was > 1.5.
In the same order, the values of `O=C(c1cnn2c(-c3ccc(N(Cc4ccccc4[N+](=O)[O-])C(=O)c4cccnc4)cc3)cccc12)N1CCCCC1` [Example 340, N-(2-nitrobenzyl)-N-(4-(3-(piperidine-1-carbonyl)pyrazolo|[1,5-a]pyridin-7-yl)phenyl)nicotinamide] are ≤ 100 nM and > 1.5.
On the same counts, the results for `CC1CCCN(C(=O)c2cnn3c(-c4ccc(F)nc4)cccc23)C1` (centres unmarked) [Example 336, (7-(6-fluoropyridin-3-yl)pyrazolo[1,5-a]pyridin-3-yl)(3-methylpiperidin-1-yl)methanone] are ≤ 100 nM and > 1.5.
On to `O=C(c1ccc(-c2cccc3c(C(=O)N4CCCCC4)cnn23)cn1)N1CCOCC1` [Example 74, (7-(6-(morpholine-4-carbonyl)pyridin-3-yl)pyrazolo[1,5-a]pyridin-3-yl)(piperidin-1-yl)methanone], for which, in test [1], the IC50 was ≤ 100 nM. Moreover, the fold induction at 1 µM in test [2] is > 1.5.
On the same counts, the results for `O=C1NCc2ccc(-c3cccc4c(C(=O)N5CCC(F)(F)CC5)cnn34)cc21` [Example 234, 6-(3-(4,4-difluoropiperidine-1-carbonyl)pyrazolo[1,5-a]pyridin-7-yl)isoindolin-1-one] are ≤ 100 nM and > 1.5.
`O=C(c1cnn2c(-c3ccc(N4CCCCC4)nc3)cccc12)N1CCCCC1` [Example 110, piperidin-1-yl(7-(6-(piperidin-1-yl)pyridin-3-yl)pyrazolo[1,5-a]pyridin-3-yl)methanone]: the IC50 in test [1] is ≤ 100 nM. Further, the fold induction at 1 µM in test [2] is < 1.5.
In the same order, the values of `O=C(c1cnn2c(-c3ccnc(Cl)c3)cccc12)N1CCCCC1` [Example 8, (7-(2-chloropyridin-4-yl)pyrazolo[1,5-a]pyridin-3-yl)(piperidin-1-yl)methanone] are ≤ 100 nM and > 1.5.
For the compound `O=C(Nc1ccncc1)c1ccc(-c2cccc3c(C(=O)N4CCCCC4)cnn23)cc1` [Example 72, 4-(3-(piperidine-1-carbonyl)pyrazolo[1,5-a]pyridin-7-yl)-N-(pyridin-4-yl)benzamide], the IC50 in test [1] is ≤ 100 nM. Moreover, the fold induction at 1 µM in test [2] is > 1.5.
